Experiments:
BJeLR = assay: Modulatory profiling: Alamar Blue viability, lethal compound cotreated with death modulator (EC50, AUC); assay type: cell-based, human; design: AUC, modulator BJ.Gd3+ / AUC, modulator BJ.LNAME / AUC, modulator BJ.Lmin / AUC, modulator BJ.3MA / AUC, modulator BJ.ALLN / AUC, modulator BJ.Boc D / AUC, modulator BJ.CHX / AUC, modulator BJ.Co2+ / AUC, modulator BJ.Nec-1 / AUC, modulator BJ.Pepstatin / AUC, modulator BJ.TLCK / AUC, modulator BJ.atoc / AUC, modulator BJ.trolox / AUC, modulator BJ.zVAD: unit not given beside the values; settings: BJeLR cells, modulatory profile value (AUC); for AUC, modulator BJ.3MA: lethal compound cotreated with modulator 3MA; for AUC, modulator BJ.ALLN: lethal compound cotreated with modulator ALLN; for AUC, modulator BJ.Boc D: lethal compound cotreated with modulator Boc D; for AUC, modulator BJ.CHX: lethal compound cotreated with modulator CHX; for AUC, modulator BJ.Co2+: lethal compound cotreated with modulator Co2+; for AUC, modulator BJ.DPQ: lethal compound cotreated with modulator DPQ; for AUC, modulator BJ.Gd3+: lethal compound cotreated with modulator Gd3+; for AUC, modulator BJ.LNAME: lethal compound cotreated with modulator LNAME; for AUC, modulator BJ.Lmin/NAD+: lethal compound cotreated with modulator Lmin/NAD+; for AUC, modulator BJ.Lmin: lethal compound cotreated with modulator Lmin; for AUC, modulator BJ.NAD+: lethal compound cotreated with modulator NAD+; for AUC, modulator BJ.NMMA: lethal compound cotreated with modulator NMMA; for AUC, modulator BJ.Nec-1: lethal compound cotreated with modulator Nec-1; for AUC, modulator BJ.Pepstatin: lethal compound cotreated with modulator Pepstatin; for AUC, modulator BJ.TLCK: lethal compound cotreated with modulator TLCK; on AUC, modulator BJ.3MA: reference of the scale not given here; on AUC, modulator BJ.ALLN: reference of the scale not given here; on AUC, modulator BJ.Boc D: reference of the scale not given here; on AUC, modulator BJ.CHX: reference of the scale not given here; on AUC, modulator BJ.Co2+: reference of the scale not given here; on AUC, modulator BJ.DPQ: reference of the scale not given here; on AUC, modulator BJ.Gd3+: reference of the scale not given here; on AUC, modulator BJ.LNAME: reference of the scale not given here; on AUC, modulator BJ.NAD+: reference of the scale not given here; on AUC, modulator BJ.NMMA: reference of the scale not given here; on AUC, modulator BJ.Nec-1: reference of the scale not given here; on AUC, modulator BJ.Pepstatin: reference of the scale not given here; on AUC, modulator BJ.TLCK: reference of the scale not given here
HT-1080 = assay: as above; assay type: cell-based; design: AUC, modulator HT.3MA / AUC, modulator HT.ALLN / AUC HT.ATA / AUC HT.ActD / AUC HT.BHA / AUC HT.BHT / AUC HT.BocD / AUC HT.CHX / AUC HT.Co2+ / AUC HT.DPQ / AUC HT.EGTA / AUC HT.Lmim / AUC HT.NAD+ / AUC HT.Nec-1 / AUC HT.SP600125 / AUC HT.TLCK / AUC HT.U0126: unit not given beside the values; settings: for AUC HT.ATA: HT-1080, modulator ATA; for AUC HT.ActD: HT-1080, modulator ActD; for AUC HT.BHA: HT-1080, modulator BHA; for AUC HT.BHT: HT-1080, modulator BHT; for AUC HT.BocD: HT-1080, modulator BocD; for AUC HT.CHX: HT-1080, modulator CHX; for AUC HT.Co2+: HT-1080, modulator Co2+; for AUC HT.CspA: HT-1080, modulator CspA; for AUC HT.DPQ: HT-1080, modulator DPQ; for AUC HT.EGTA: HT-1080, modulator EGTA; for AUC HT.Gd3+: HT-1080, modulator Gd3+; for AUC HT.LNAME: HT-1080, modulator LNAME; for AUC HT.Lmim: HT-1080, modulator Lmim; for AUC HT.NAD+: HT-1080, modulator NAD+; for AUC HT.NMMA: HT-1080, modulator NMMA; for HT.atoc (AUC) / HT.bCarotene (AUC) / HT.deferox (AUC) / HT.digoxin (AUC) / HT.trolox (AUC) / HT.zVAD (AUC): HT-1080; for HT.atoc (AUC): modulator atoc; for HT.bCarotene (AUC): modulator bCarotene; for HT.deferox (AUC): modulator deferox; for HT.digoxin (AUC): modulator digoxin; for HT.trolox (AUC): modulator trolox; for HT.zVAD (AUC): modulator zVAD
Wherever AUC HT.BHA is given: reference of the scale not given here.
Wherever AUC HT.EGTA is given: reference of the scale not given here.

## CCC(C(NNC(=O)c1ccc(C(F)(F)F)cc1)c1ccc(C(F)(F)F)cc1)[N+](=O)O (stereo not shown) [CIL88]
BJeLR
  AUC, modulator BJ.3MA: 0.03093
  AUC, modulator BJ.ALLN: −0.1424
  AUC, modulator BJ.Boc D: −0.01445
  AUC, modulator BJ.CHX: 0.2354
  AUC, modulator BJ.Co2+: 0.05379
  AUC, modulator BJ.DPQ: −0.03608
  AUC, modulator BJ.Gd3+: −0.03652
  AUC, modulator BJ.LNAME: 0.0201
  AUC, modulator BJ.Lmin/NAD+: 0.03399
  AUC, modulator BJ.Lmin: −0.01241
  AUC, modulator BJ.NAD+: −0.03559
  AUC, modulator BJ.NMMA: −0.01217
  AUC, modulator BJ.Nec-1: −0.03649
  AUC, modulator BJ.Pepstatin: −0.06126
  AUC, modulator BJ.TLCK: 0.0209
HT-1080
  AUC HT.ATA: 0.08122
  AUC HT.ActD: −0.03102
  AUC HT.BHA: 0.007109
  AUC HT.BHT: −0.09988
  AUC HT.BocD: 0.02037
  AUC HT.CHX: 0.04478
  AUC HT.Co2+: 0.01652
  AUC HT.CspA: −0.05842
  AUC HT.DPQ: −0.01431
  AUC HT.EGTA: 0.01878
  AUC HT.Gd3+: −0.03651
  AUC HT.LNAME: 0.02199
  AUC HT.Lmim: 0.01907
  AUC HT.NAD+: 0.007478
  AUC HT.NMMA: −0.000615
  HT.atoc (AUC): 0.07162
  HT.bCarotene (AUC): 0.02318
  HT.deferox (AUC): 0.0616
  HT.digoxin (AUC): 0.05526
  HT.trolox (AUC): −0.01577
  HT.zVAD (AUC): 0.04371

## CCOC(=O)[C@@H]1[C@@H](c2ccccc2)C(=O)CCN1NC(=O)c1ccccc1 [CIL89]
BJeLR
  AUC, modulator BJ.3MA: −0.01648
  AUC, modulator BJ.ALLN: −0.1204
  AUC, modulator BJ.Boc D: 0.03243
  AUC, modulator BJ.CHX: 0.1968
  AUC, modulator BJ.Co2+: 0.01721
  AUC, modulator BJ.DPQ: −0.02598
  AUC, modulator BJ.Gd3+: −0.07038
  AUC, modulator BJ.LNAME: 0.03646
  AUC, modulator BJ.Lmin/NAD+: 0.04069
  AUC, modulator BJ.Lmin: 0.03551
  AUC, modulator BJ.NAD+: −0.03932
  AUC, modulator BJ.NMMA: −0.02344
  AUC, modulator BJ.Nec-1: −0.02957
  AUC, modulator BJ.Pepstatin: −0.006292
  AUC, modulator BJ.TLCK: −0.06676
HT-1080
  AUC HT.ATA: 0.05896
  AUC HT.ActD: 0.03977
  AUC HT.BHA: −0.006147
  AUC HT.BHT: −0.1188
  AUC HT.BocD: −0.004667
  AUC HT.CHX: −0.008693
  AUC HT.Co2+: 0.008377
  AUC HT.CspA: −0.06906
  AUC HT.DPQ: −0.005287
  AUC HT.EGTA: 0.04226
  AUC HT.Gd3+: −0.04594
  AUC HT.LNAME: 0.003061
  AUC HT.Lmim: 0.02342
  AUC HT.NAD+: 0.02662
  AUC HT.NMMA: −0.009041
  HT.atoc (AUC): 0.0671
  HT.bCarotene (AUC): 0.01857
  HT.deferox (AUC): 0.04587
  HT.digoxin (AUC): 0.01146
  HT.trolox (AUC): −0.02147
  HT.zVAD (AUC): 0.03058

## COc1cc2c(c(OC)c1OC)-c1ccc(OC)c(=O)cc1[C@@H](NC(C)=O)CC2 [Colchicine]
BJeLR
  AUC, modulator BJ.3MA: 0.003026
  AUC, modulator BJ.ALLN: −0.03356
  AUC, modulator BJ.Boc D: −0.0009082
  AUC, modulator BJ.CHX: 0.161
  AUC, modulator BJ.Co2+: 0.1688
  AUC, modulator BJ.DPQ: −0.03053
  AUC, modulator BJ.Gd3+: −0.01061
  AUC, modulator BJ.LNAME: −0.008548
  AUC, modulator BJ.Lmin/NAD+: 0.1409
  AUC, modulator BJ.Lmin: 0.05808
  AUC, modulator BJ.NAD+: 0.1128
  AUC, modulator BJ.NMMA: −0.005221
  AUC, modulator BJ.Nec-1: −0.04443
  AUC, modulator BJ.Pepstatin: 0.003669
  AUC, modulator BJ.TLCK: −0.01338
BJeLR; lethal compound cotreated with modulator atoc
  AUC, modulator BJ.atoc: −0.02812
BJeLR; lethal compound cotreated with modulator trolox
  AUC, modulator BJ.trolox: −0.004229
BJeLR; lethal compound cotreated with modulator zVAD
  AUC, modulator BJ.zVAD: 0.05702
HT-1080
  AUC HT.ATA: 0.1325
  AUC HT.ActD: 0.01343
  AUC HT.BHA: 0.01506
  AUC HT.BHT: −0.006747
  AUC HT.BocD: 0.1264
  AUC HT.CHX: 0.04333
  AUC HT.Co2+: 0.1098
  AUC HT.CspA: −0.1209
  AUC HT.DPQ: 0.01511
  AUC HT.EGTA: −0.000119
  AUC HT.Gd3+: 0.01351
  AUC HT.LNAME: 0.008236
  AUC HT.Lmim: 0.1199
  AUC HT.NAD+: 0.1471
  AUC HT.NMMA: 0.008585
  HT.atoc (AUC): −0.0173
  HT.bCarotene (AUC): 0.01723
  HT.deferox (AUC): 0.2984
  HT.digoxin (AUC): 0.1359
  HT.trolox (AUC): 0.01591
  HT.zVAD (AUC): 0.134
HT-1080; HT-1080, modulator Nec-1
  AUC HT.Nec-1: 0.01661
HT-1080; HT-1080, modulator Pepstatin
  AUC HT.Pepstatin: 0.004413
HT-1080; HT-1080, modulator SP600125
  AUC HT.SP600125: −0.02858
HT-1080; HT-1080, modulator TLCK
  AUC HT.TLCK: 0.0306
HT-1080; HT-1080, modulator U0126
  AUC HT.U0126: 0.2237
HT-1080; HT-1080 cells, lethal compound cotreated with modulator 3MA, modulatory profile value (AUC)
  AUC, modulator HT.3MA: 0.01861
HT-1080; HT-1080 cells, lethal compound cotreated with modulator ALLN, modulatory profile value (AUC)
  AUC, modulator HT.ALLN: 0.1932

From patent US10947188B2, “Small molecule ferroptosis inducers” (THE TRUSTEES OF COLUMBIA UNIVERSITY IN THE CITY OF NEW YORK, priority 2016, dated 2021)
